Earlier results in patent US20160114057A1, “MODULAR PROTEIN DRUG CONJUGATE THERAPEUTIC” (ZYMEWORKS INC., priority 2013, published 2016).
Where two headings read alike, the source gives them in different places. Where a SMILES comes first, the peptide text is derived from it. [ ]: non-standard residue; d: D form. Aoe = N[C@@H](CCCCCC(=O)[C@@H]1CO1)C(=O)O; Aib = CC(C)(N)C(=O)O

Columns and labels:
KB = details: KB
tumors in animal models = details: tumor types as in Table 1
[1] = tested on: A-549 (epidermoid carcinoma)
MEL-28 = details: cell culture
HT-29 (colon) = details: cell culture
various tumor cell lines = details: P388, K562, A431, MKN28; read-out: IC50 (for all)
[2] = i.p. in mice
histone deacetylase = details: inhibits histone deacetylase
[3] = tested on: NCI tumor panel (60 cell line); details: NCI tumor panel; range over cell lines
[4] = human
[5] = not given; remark: listed apart in the source
[6] = not given; remark: listed apart in the source
[7] = tested on: CD33+ cells (HL-60, NOMO-1, and NKM-1); details: at 100 ng/mL

Question: Which IC50 (A2780) does the source give for `CCSC1SCC2C(=O)N(C)C3(CC3C)C(=O)OCC(NC(=O)c3nc4ccccc4cc3O)C(=O)NC(C)C(=O)N(C)C1C(=O)N(C)C1(CC1C)C(=O)OCC(NC(=O)c1nc3ccccc3cc1O)C(=O)NC(C)C(=O)N2C` (centres unmarked) [SW-163E] here?
Answer: 0.2 nM

Question: And the IC50 (colon)?
Answer: 1.6 nM

Question: And the “Toxicity (in words)” value?
Answer: low toxicity (mice

Question: And the IC50 (KB; read-out: Activity (IC50))?
Answer: 0.4 nM

Question: And the IC50 (HL-60)?
Answer: 1.3 nM

Question: What about the IC50 (P388; read-out: Activity (IC50)) of the same molecule?
Answer: 0.3 nM

Question: Which “activity in animal models (in words)” value (tumors in animal models) does the source give for `C=C1C[C@@H]2CCO[C@H]3[C@@H]4C[C@H]5CC[C@H](CC(=O)C[C@@H]6[C@@H](OC)[C@@H](C[C@H](O)CO)O[C@H]6C[C@H]6O[C@@H](CC[C@@H]1O2)C[C@@H](C)C6=C)O[C@@H]5[C@@H]1OCC[C@@H]3O[C@H]41` [Halichondrin B analogs] here?
Answer: active (tumor

Question: For `C/C1=C\C(C)C(C)OC(=O)CC(c2ccc(O)cc2)NC(=O)C(Cc2c(Cl)[nH]c3ccccc23)N(C)C(=O)C(C)NC(=O)C(C)C1` (centres unmarked) [Chondramide D], which IC50 (U-937 (lymphoma)) is on record?
Answer: 3 nM

Question: And the IC50 (A549 (lung); A549 (lung), read-out: Activity (IC50))?
Answer: 14 nM

Question: What about the IC50 [1] of the same molecule?
Answer: 5 nM

Question: And the IC50 (SK-OV-3 (ovary))?
Answer: 5 nM

Question: And the IC50 (A-498 (kidney))?
Answer: 15 nM

Question: With `CCC1/C=C/C=C/CC(C)C(O)C(C)(O)C(=O)CC(O)C(C)C(O)C(C)C(O)C(C)/C=C/C(=O)OC2C(C)C(CC1)OC1(CCC(C)C(CC(C)O)O1)C2C` (centres unmarked) [BE-56384] as the molecule, how does the IC50 (DLD-1) read?
Answer: 34 DLD-1 ng/mL

Question: And the IC50 (PC-13)?
Answer: 0.12 PC-13 ng/mL

Question: What about the IC50 (colon 26) of the same molecule?
Answer: 0.29 colon 26 ng/mL

Question: And the IC50 (MKM-45)?
Answer: 0.12 MKM-45 ng/mL

Question: And the IC50 (P388)?
Answer: 0.1 P388 ng/mL

Question: Which results are given for `C=CC(C)(C)OC[C@H]1NC(=O)[C@H]([C@@H](C)OC(C)(C)C=C)NC(=O)C2CSC(N2)[C@@H](Cc2ccccc2)NC(=O)[C@@H]2CCCN2C(=O)C(C)NC(=O)[C@H]([C@@H](C)CC)NC1=O` (some centres unmarked) [Trunkamide A]?
Answer: IC50 (A549 (lung); cell culture, A549): 0.5 A549; micrograms/mL; IC50 (MEL-28): 1.0 MEL-28 micrograms/mL; IC50 (HT-29 (colon)): 0.5 HT-29; micrograms/mL; IC50 (P388; cell culture): 0.5 P388; micrograms/mL

Question: Which “Activity (IC50)” value (lung) does the source give for `CC[C@@H]1/C=C/C=C/C[C@H](C)[C@@H](O)[C@](C)(O)C(=O)[C@H](C)[C@@H](O)[C@H](C)C(=O)[C@H](C)[C@@H](O)[C@H](C)/C=C/C(=O)O[C@H]2[C@@H](C)[C@@H](CC1)O[C@@]1(CC[C@@H](C)[C@@H](C[C@H](C)O)O1)[C@@H]2CC` [NK-1301129] here?
Answer: 8.5 ng/mL lung

Question: And the “Activity (IC50)” value (colon)?
Answer: 25 ng/mL colon

Question: Which IC50 (A431 (EC)) does the source give for `COc1c(O)c2c(c3cc(C(=O)N4CCc5c4c(O)c(OC)c4[nH]c(C(=O)N6CC7CC78C6=CC(=O)c6[nH]cc(C)c68)cc54)[nH]c13)CCN2C(C)=O` (centres unmarked) [Gilvusmycin] here?
Answer: 0.72 A431 (EC) ng/mL

Question: And the IC50 (K562 (CML))?
Answer: 0.86 K562 (CML) ng/mL

Question: And the IC50 (various tumor cell lines)?
Answer: < 1 nM

Question: What about the IC50 (MKN28 (GI)) of the same molecule?
Answer: 0.75 MKN28 (GI); ng/mL

Question: And the IC50 (P388)?
Answer: 0.08 P388 ng/mL

Question: Which LD50 [2] does the source give for `NC[C@H]1[C@H]2CN3C(=O)c4cccn4[C@H]4NC(N)=NC43[C@H]2[C@@]2(N=C(N)N[C@@H]2O)[C@H]1Cl` (some centres unmarked) [Palauamine] here?
Answer: is 13 mg/Kg

Question: And the IC50 (KB; cell culture)?
Answer: 10 KB micrograms/mL

Question: And the IC50 (A549 (lung); cell culture, A549)?
Answer: 0.2 A549 (lung) micrograms/mL

Question: And the IC50 (HT-29 (colon))?
Answer: 2 HT-29 (colon) micrograms/mL

Question: And the IC50 (P388; cell culture)?
Answer: 0.1 P388 micrograms/mL

Question: For `CC1(C)NC(=O)[C@H](CCCCCC(=O)[C@@H]2CO2)NC(=O)[C@H]2CCCN2C(=O)[C@H](Cc2ccccc2)NC1=O` [Chlamydocin] (cyclo([Aib]F[dP][Aoe])), which IC50 (histone deacetylase) is on record?
Answer: 1.3 nM

Question: Which IC50 [3] does the source give for `C/C=C1\NC(=O)[C@H]2CSSCC/C=C/[C@H](CC(=O)N[C@H](C(C)C)C(=O)N2)OC(=O)[C@H](C(C)C)NC1=O` [FR-901228] here?
Answer: 0.56 to 4.1 nM

Question: What about the dose limiting toxicity [4] of the same molecule?
Answer: (human) 18 mg/Kg;

Question: What about the “Toxicity (in words)” value of the same molecule?
Answer: toxicity, lymphoid

Question: And the t1/2 ([5]; human)?
Answer: t1/2 of 8 hrs

Question: What about the “toxic dose (LD50)” value ([6]; ip) of the same molecule?
Answer: 6.4 mg/kg

Question: What about the “toxic dose (LD50)” value ([6]; iv) of the same molecule?
Answer: 10 mg/kg

Question: What does the source list for `C=CCNC1=C2C[C@@H](C)C[C@H](OC)[C@H](O)[C@@H](C)/C=C(\C)[C@H](OC(N)=O)[C@@H](OC)/C=C\C=C(/C)C(=O)NC(=CC1=O)C2=O` [Variant 17-AAG]?
Answer: activity in animal models (in words) (tumors in animal models): models active; t1/2 ([5]; i.v.): ~1.5 h

Question: Which “Toxicity (in words)” value does the source give for gemtuzumab ozogamicin here?
Answer: mild toxicity

Question: What about the “killing of CD33+ cells (in words)” value [7] of the same molecule?
Answer: Kills CD33+ cells
